From patent US20230106836A1, “METHOD OF USING BIOSURFACTANT-PRODUCING BACTERIA AGAINST FUNGAL AND BACTERIAL PATHOGENS” (THE ROYAL INSTITUTION FOR THE ADVANCEMENT OF …, priority 2020, published 2023)

Legend:
[1] = system: Botrytis cinerea; experiment: Antimicrobial assay of TLC fractions against fungi; format: cell-based; details: strain F014, Botrytis cinerea; organic acids 1%, bleach 1.3%
Description: (§1) Bacterial cells were removed by centrifugation (5000×g at 4° C.) and the cell—free supernatant (CFS) was acidified to pH 2.0 with 2N HCL at 4° C. for 16 h resulting in a precipitate that was collected by centrifugation (5000×g for 10 min at 4° C.). The acid precipitate fraction (APF) was dissolved in water (100 mg/mL) and adjusted to pH 7.0 using 1N NaOH. The CFS sample and clean BHM culture medium were concentrated by freeze-drying for 48 h. All samples were stored at −80° C. until further use.
(§2) Separation of CFS and APF fractions was performed by thin layer chromatography (TLC). Acid-cleaned glass plates (20×20 cm) were coated with a thin layer of silica emulsion (160 grams of silica with 15% (w/v) calcium sulphate and with fluorescent indicator GF254 dissolved in 500 mL of double distilled water) purchased from Sigma-Aldrich and dried for 16-18 h at 22° C. Activation of silica plates was done by heating the TLC plates at 120° C. for 30 min prior to use. An amount of 100 mg of each of CFS and APF were dissolved in 400 μL of chloroform: methanol (2:1, v/v) and separated on activated TLC plates with chloroform: methanol: water (70:26:4) as the developing solvent system. Plates were observed under UV (λ=254 nm) and the retention factor (Rf) values were calculated as distance travelled by the samples over the distance travelled by solvent. Only APF separated fractions were used for bioactivity assays. Bands corresponding to the desired Rf values were scraped and collected for extraction. Bands of the same Rf value from different plates were pooled together and extracted twice with chloroform: methanol (v/v/; 2:1). The collected fractions were vacuum-concentrated for 4-6 h at −60° C. using a Speed Vac™ v78100 (Labconco Corp, Kansas City Mo., USA), re-dissolved in 50 μL of methanol and tested against target bacteria and fungi, as well as for biosurfactant activity. Methanol (50 μL) was used as a negative control.
(§3) The biosurfactant activity of the fractions was tested using the oil-spreading and the drop collapse methods, as described above. Fractions were also tested for their antimicrobial activities against a number of bacteria and fungi using the Burkholder diffusion plate method as noted above. Briefly, 10 μL of the dissolved fractions were spotted in the middle of the plates. Positive controls consisted of 10 μL of bleach and of each of the following organic acids: 1% (v/v) of acetic acid, formic acid, citric acid and lactic acid. […] Individual trials were performed in triplicate and the entire assay was repeated twice to confirm the findings.

[2] = system: Rhizoctonia solani; experiment: Antimicrobial assay of TLC fractions against fungi; format: cell-based; details: organic acids 1%, bleach 1.3%
Description: as §1, §2, §3

[3] = system: E. coli; experiment: Diffusion plate assay of TLC fractions, organic acids and bleach; format: cell-based, Escherichia coli; details: organic acids 1%, bleach 1.3%
Description: as §1, §2, §3

[4] = system: X. campestris; experiment: as above; format: cell-based; details: strain B07.007, Xanthomonas campestris; organic acids 1%, bleach 1.3%
Description: as §1, §2, §3

[5] = system: Salmonella enterica serovars; experiment: as above; format: cell-based; details: organic acids 1%, bleach 1.3%
Description: as §1
as §2, with “Only APF separated fractions were used for bioactivity assays.” left out
as §3

[6] = strain AG1-1A (ROS-2A), R. solani
[7] = strain AG3 (114), Rhizoctonia solani

Compound | Microbial activity (clearing zone), fractions, organic acids and bleach [1] | Microbial activity (clearing zone), fractions, organic acids and bleach [2, 6] | Microbial activity (clearing zone), fractions, organic acids and bleach [2, 7] | Microbial activity (clearing zone), fractions, organic acids and bleach ([3]; strain E3-6, Escherichia coli) | Microbial activity (clearing zone), fractions, organic acids and bleach ([3]; strain E10-6, E. coli) | Microbial activity (clearing zone), fractions, organic acids and bleach ([3]; strain E14-6, E. coli) | Microbial activity (clearing zone), fractions, organic acids and bleach ([3]; strain E15-6, E. coli) | Microbial activity (clearing zone), fractions, organic acids and bleach [4] | Microbial activity (clearing zone), fractions, organic acids and bleach ([5]; strain MAE14, S. enterica Typhimurium) | Microbial activity (clearing zone), fractions, organic acids and bleach ([5]; strain MAE299, S. enterica Typhimurium) | Microbial activity (clearing zone), fractions, organic acids and bleach ([5]; strain MAE775, S. enterica Typhimurium) | Microbial activity (clearing zone), fractions, organic acids and bleach ([5]; strain PARC#5, S. enterica Agona) | Microbial activity (clearing zone), fractions, organic acids and bleach ([5]; strain SCS2, S. enterica I: Rough-O: e, h: e, n) | Microbial activity (clearing zone), fractions, organic acids and bleach ([5]; strain SL1, S. enterica Newport) | Microbial activity (clearing zone), fractions, organic acids and bleach ([5]; strain SL2, S. enterica Hartford) | Microbial activity (clearing zone), fractions, organic acids and bleach ([5]; strain UMR1, Salmonella enterica Typhimurium)
O=C(O)CC(O)(CC(=O)O)C(=O)O [CA] | + ((+) clearing zone of 3 mm) | + ((+) clearing zone of 3 mm) | + ((+) clearing zone of 3 mm) | + ((+) clearing zone of 3 mm) | + ((+) clearing zone of 3 mm) | + ((+) clearing zone of 3 mm) | + ((+) clearing zone of 3 mm) | ++ ((++) clearing zone of 4 mm) |  |  |  |  |  |  |  | 
O=CO [FA] | +++ (clearing zone of 5 mm (+++)) | +++ (clearing zone of 5 mm (+++)) | +++ (clearing zone of 5 mm (+++)) | +++ (clearing zone of 5 mm (+++)) | +++ (clearing zone of 5 mm (+++)) | +++ (clearing zone of 5 mm (+++)) | +++ (clearing zone of 5 mm (+++)) | +++ (clearing zone of 5 mm (+++)) |  |  |  |  |  |  |  | 
CC(O)C(=O)O (stereo not shown) [LA] | + ((+) clearing zone of 3 mm) | + ((+) clearing zone of 3 mm) | + ((+) clearing zone of 3 mm) | + ((+) clearing zone of 3 mm) | + ((+) clearing zone of 3 mm) | + ((+) clearing zone of 3 mm) | + ((+) clearing zone of 3 mm) | ++ ((++) clearing zone of 4 mm) |  |  |  |  |  |  |  | 
CC(=O)O [AA] | ++ ((++) clearing zone of 4 mm) | ++ ((++) clearing zone of 4 mm) | ++ ((++) clearing zone of 4 mm) | ++ ((++) clearing zone of 4 mm) | ++ ((++) clearing zone of 4 mm) | ++ ((++) clearing zone of 4 mm) | ++ ((++) clearing zone of 4 mm) | +++ (clearing zone of 5 mm (+++)) | ++ ((++) clearing zone of 4 mm) | ++ ((++) clearing zone of 4 mm) | +++ (clearing zone of 5 mm (+++)) | ++ ((++) clearing zone of 4 mm) | ++ ((++) clearing zone of 4 mm) | ++ ((++) clearing zone of 4 mm) | ++ ((++) clearing zone of 4 mm) | ++ ((++) clearing zone of 4 mm)
